The values below come from patent publication EP4455142A1, “NOVEL INHIBITOR OF QPCTL AND/OR QC” (Scenic Immunology B.V., priority 2023, dated 2024).

Data set [1] concerns the target T1, human isoQC (Homo sapiens, UniProt Q9NXS2).
T1 construct: The Golgi luminal, enzymatically active region of human isoQC (S53-L382; see, e.g., Huang et al., 2011); GST (with enterokinase site) (N, cleaved yes); made in house; host or cells: E. coli
Kind of data set: Assay 1 - isoQC potency, fluorescent enzymatic assay (H-Gln-AMC, coupled pGAPase detection). The format is biochemical. The note with it: recombinant isoQC, 1 hour at 37°C. From the text:
The Golgi luminal, enzymatically active region of human isoQC (S53-L382; see, e.g., Huang et al., 2011) was obtained by expression in E. coli of an N-terminally GST Enterokinase and C-terminally 6xHis tagged construct in the pET41(+) vector and subsequent purification using Ni-NTA IMAC. Enterokinase digestion ensued, followed by another Ni-NTA IMAC purification, Superdex75 based size exclusion and finally a spin concentration using a 10 kDa molecular weight cutoff. The final protein is formulated in 50 mM Tris-HCl, 150 mM NaCl, 50% Glycerol, pH 7.8.
(§1) Pyroglutamylation was measured by conversion of glutamine-4-amino-7-methylcoumarine (H-Gln-AMC, Bachem) to pyroglutamyl-AMC, which is subsequently a specific substrate for pyroglutamylaminopeptidase (pGAPase, Qiagen), releasing free AMC which can be fluorescently detected. For a typical inhibition assay, 7.5 µL aliquots of threefold dilutions of test compound in 50mM Tris pH8 buffer were plated in 384-well plates. 15 µL 20 µM hGln-AMC (diluted from a 40 mM stock dissolved in 25 mM HEPES using 50 mM Tris-HCl 25 pH 8.0) was added to each well. Finally, 7.5 µL, 3 ng/µL recombinant isoQC enzyme was added and the reaction mixture was incubated for 1 hour at 37°C. A 5 minute incubation at 98°C was then performed to denature the isoQC enzyme and stop the reaction.
To detect the amount of pyroglutamyl-AMC formed, a 0.125 U/mL pGAPase enzyme diluted in 50 mM Tris-HCl pH 8.0 containing 10 mM dithiothreitol (DTT) solution was prepared. 25 µL of the pyroglutamylation reaction mixture was transferred into an empty plate and to that, 25 µL of the pGAPase enzyme solution was added. Plates were then incubated for 25 minutes at room temperature before fluorescence readings were taken on an Envision2 plate reader with excitation set at 380 nm and emission at 450 nm. DMSO concentrations during the assay never exceeded 1% and activities were compared to controls containing only the same amount of DMSO and no test compound. Controls were taken along containing pyroglutamylated-AMC (Bachem, dissolved at 10 mM in DMSO) instead of H-Gln-AMC to control for pGAPase inhibition.
(§2) IC50 values are calculated using non-linear regression analysis with GraphPad Prism software.

Data set [2] in a line: Microsomal stability, dog (DLM). The format is in vitro ADME. The note with it: liver microsomes; (beagle) dog microsomes, 0.5 mg protein/mL, 1 µM test compound. How it is done: (§3) In order to assess metabolic stability of test compounds, commercially acquired CD-1 mouse liver microsome preparations were incubated in 100 µL at a final concentration of 0.5 mg protein/mL, 1 µM test compound, 0.99% methanol and 0.01% DMSO, after a 10 minute pre-incubation at 37°C and addition of 0.1 volumes 10 U/mL NADPH in 10 mM MgCl2. Reactions were stopped by addition of 300 µL cold acetonitrile containing internal standards at t = 0, 5, 10, 20, 30, and 60 minutes. Samples were submitted to LC-MS/MS analysis subsequently and the slope of linear regression of time versus In(% Remaining concentration) was derived to calculate t½ as t½= In(2) /(-Slope). Then Clint(mic) and Clint(liver) were calculated as follows: CLint(mk) = (0.693)/(In vitro T1/2) · (1)/(mg/mL microsomal protein in reaction system) [formula] CLint(liver) = CLint(mic) · (mg microsomes)/(g liver) · (g liver)/(kg body weight) [formula]
(§4) The same procedure was performed for human microsomes, SD rat microsomes and (beagle) dog microsomes.
Where 45 mg microsomal protein/g liver and 32 g liver/kg dog bodyweight were used as standardized parameters for […].
Background: Liver microsomes are a subcellular fraction often used to study metabolism.

A short description of data set [3]: Microsomal stability, rat (RLM). In kind it is in vitro ADME. To be noted: liver microsomes; SD rat microsomes, 0.5 mg protein/mL, 1 µM test compound. Here is the method:
as §3, §4
Where 45 mg microsomal protein/g liver and 40 g liver/kg rat bodyweight were used as standardized parameters for rat microsomes.

Data set [4] in a line: Kinetic solubility. The format is physicochemical. To be noted: aqueous buffer; 50 mM phosphate buffer (pH 7.4), 24 hours at room temperature. Here is the method: To assess the solubility of test compounds 10 µL of a 10 mM solution in DMSO was added to the lower chamber of a whatman miniuniprep (PTFE Filter Media with Polypropylene Housing) vial. 490 µL of 50 mM phosphate buffer (pH 7.4) was added to the lower chamber, the samples were vortexed for at least two minutes and then shaken on a shaker for 24 hours at room temperature at the speed of 880 rpm. The samples were then centrifuged for 20 minutes at 4000 rpm, compressed and the filtrates were injected into a HPLC-UV and LC-MS/MS system to calculate the concentration compared to the standard curve using a ACQUITY UPLC BEH C18 1.7 µm 2.1 * 50 mm column.

In data set [5] the target is T2, recombinant QC enzyme (Homo sapiens, UniProt Q16769).
T2 construct: bacterial expression of residues 33-361 of uniprot ID Q16769, fused to a His tag; His tag (cleaved yes); made in house
T2 sequence (Q16769 33-361): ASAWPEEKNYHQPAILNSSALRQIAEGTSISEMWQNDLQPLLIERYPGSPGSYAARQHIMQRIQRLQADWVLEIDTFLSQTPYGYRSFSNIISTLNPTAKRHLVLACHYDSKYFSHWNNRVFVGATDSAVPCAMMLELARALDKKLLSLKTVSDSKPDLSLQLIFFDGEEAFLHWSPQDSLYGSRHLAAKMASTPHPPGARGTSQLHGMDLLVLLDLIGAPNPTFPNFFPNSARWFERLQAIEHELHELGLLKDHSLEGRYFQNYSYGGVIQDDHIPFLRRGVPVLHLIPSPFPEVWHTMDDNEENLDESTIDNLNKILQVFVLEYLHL
Kind of data set: Assay 2 - QC potency, fluorescent enzymatic assay (H-Gln-AMC, coupled pGAPase detection). The format is biochemical. The note with it: 1 hour at 37°C. Here is the method: After scale-up, expression and lysis, protein was purified by Ni-NTA IMAC, dialysed in the presence of Factor Xa, further purified by Ni-NTA reverse IMAC and finally filtrated for size on a Superdex 200 16/60 column. Final protein was concentrated using a spin concentrator at 10 kDa molecular weight cut-off and formulated in 150 mM NaCl, 50 mM Tris-HCl, 50% Glycerol, pH 8.0.
as §1, with “50 mM” for “50mM”, “h-Gln-AMC” for “hGln-AMC”, “Tris-HCl” for “Tris-HCl 25”, “QC” for “isoQC”
25 µL of the pyroglutamylation reaction mixture was transferred into an empty plate and to that, 25 µL of the pGAPase enzyme solution was added. Plates were then incubated for 25 minutes at room temperature before fluorescence readings were taken on an Envision2 plate reader with excitation set at 380 nm and emission at 450 nm.
Controls were taken along containing pyroglutamylated-AMC (Bachem, dissolved at 10 mM in DMSO) instead of H-Gln-AMC to control for pGAPase inhibition.
as §2

The structures appear in SMILES notation. Converted amounts (≈) assume the structure as drawn.

T1 sequence (Q9NXS2 53-382): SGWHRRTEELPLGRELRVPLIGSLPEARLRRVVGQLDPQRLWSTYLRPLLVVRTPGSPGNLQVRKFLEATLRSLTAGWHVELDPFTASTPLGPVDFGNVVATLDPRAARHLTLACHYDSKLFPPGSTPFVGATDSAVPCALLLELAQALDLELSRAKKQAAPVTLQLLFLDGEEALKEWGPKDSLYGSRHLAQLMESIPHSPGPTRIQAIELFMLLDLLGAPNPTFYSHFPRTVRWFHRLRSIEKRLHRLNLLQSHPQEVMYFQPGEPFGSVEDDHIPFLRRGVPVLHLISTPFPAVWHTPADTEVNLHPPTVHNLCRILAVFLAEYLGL

For `O=C1OCC(c2ccc(N3CCCC3)cc2)N1c1ccc2[nH]cnc2c1` (single isomer, unassigned) [(18)-ent2], the IC50 in data set [1] was 23.9 nM; in data set [5] it was 31.2 nM. Further, the values for the CLint scaled at 1 µM in data set [2] and in data set [3] were 32.8 mL/min/kg and 1070 mL/min/kg, respectively. The compound further showed a solubility at 24 h in data set [4] of 60 µM (≈ 20.9 µg/mL).

As to `O=C1OC[C@H](c2ccc(-c3cnn(C(F)(F)F)c3)cc2F)N1c1ccc2[nH]cnc2c1` [Compound (1)], the IC50 in data set [1] is 1.7 nM; in data set [5], 10.3 nM. The same compound registered a solubility at 24 h in data set [4] of 121 µM (≈ 52.2 µg/mL).

For `O=C1OCC(c2ccc(C3CCC(F)(F)CC3)cc2)N1c1ccc2[nH]cnc2c1` (single isomer, unassigned) [(19)-ent2], the 50% inhibitory concentration (IC50) in data set [1] was determined as 35.8 nM. The intrinsic metabolic clearance (CLint scaled) at 1 µM in data set [2] stood at 21.8 mL/min/kg; in data set [3], 49.9 mL/min/kg. In data set [4], this compound returned a solubility at 24 h of 42 µM (≈ 16.7 µg/mL).

What is called IC50 is the concentration that inhibits the measured activity by half. As a reminder, the CLint scaled is the rate of metabolic loss divided by the concentration. Read a high CLint scaled as faster metabolism. As usually defined, the solubility is the dissolved amount per volume that the medium holds. Higher therefore signals much dissolved substance.
